Experimental data: publication PMC6838683, “Discovery of Human Signaling Systems: Pairing Peptides to G Protein-Coupled Receptors” (Cell, 2019)
Positions of bridges follow the written chain, without caps; N, C: chain ends. Residues, ends and D or L forms follow the SMILES beside them. No end group written: not given here.

Assays:
[1] = molecular target: T1, GPR139 (Homo sapiens, UniProt Q6DWJ6); experiment: β-arrestin recruitment (Tango), validation; format: cell-based
T1 construct: hIL-2Ra signal peptide (N); expressed in transfected cells
T1 sequence (Q6DWJ6 2-353 limits assumed): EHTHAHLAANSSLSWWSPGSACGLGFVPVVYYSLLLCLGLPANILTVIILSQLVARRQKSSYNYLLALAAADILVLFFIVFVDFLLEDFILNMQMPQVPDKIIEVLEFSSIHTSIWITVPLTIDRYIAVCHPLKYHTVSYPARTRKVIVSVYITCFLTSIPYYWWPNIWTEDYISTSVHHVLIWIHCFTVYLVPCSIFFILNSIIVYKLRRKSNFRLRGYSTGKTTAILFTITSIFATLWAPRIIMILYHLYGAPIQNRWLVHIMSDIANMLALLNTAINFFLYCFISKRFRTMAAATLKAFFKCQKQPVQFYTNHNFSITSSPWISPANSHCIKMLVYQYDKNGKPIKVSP
Source text: (§1) Supplement mmc7.xlsx, sheet "Peptide validation data" | column: Comment

[2] = molecular target: T1, GPR139; experiment: IP1 accumulation; format: cell-based; settings: mean, SEM and n
Source text: Supplement mmc7.xlsx, sheet "Peptide validation data" | column: Emax; pEC50

[3] = molecular target: T1, GPR139; experiment: Repeat of proposed literature pairing (mass redistribution and/or internalization); format: cell-based; settings: GPR139
Source text: DMR assays provide a single integrated readout of ligand-dependent cellular response, utilizing an optical biosensor in specialized microplates to detect wavelength shifts of reflected light as it passes through the biosensor and the lower portion of the cell (∼150-200 nm). As a signal pathway agnostic approach, DMR assays are well-suited to the study of GPCRs ([Fang et al., 2008], [Schröder et al., 2011]). The mass redistribution response (Δ picometer (pm)) likely reflects a number of intracellular events, including cytoskeletal rearrangement, protein trafficking and receptor internalization. Orphan receptor-expressing cells were gently washed twice with assay buffer (HBSS with 1 mM CaCl2, 1 mM MgCl2, 20 mM HEPES, 0.01% pluronic F-68, pH 7.4) containing 0.1% DMSO and cells were equilibrated for 90 min at 22°C in the EPIC Benchtop (BT) System (Corning) to establish a stable DMR signal. After 3-5 min baseline recordings, peptides (10 μM) were added in duplicate wells using an electronic 384-channel Viaflo pipette (Integra Biosciences, Switzerland) and DMR responses were measured for 60 min at 22°C. 100 nM norepinephrine was included as an internal assay control to assess the cellular DMR response via endogenously-expressed adrenoceptors in the TREx 293 cells. Real-time data were processed using the BT to column converter MS-Excel macro (Corning) and analyzed in GraphPad Prism 7.0. DMR recordings in peptide screening experiments were buffer and solvent corrected and the area under the curve (AUC) was quantified. For subsequent validation experiments, peptides were diluted in assay buffer containing 0.1% DMSO and DMR assays were performed as above. […] Data represent mean ± standard error of the mean (SEM) from at least 3 biologically independent experiments.
A TR-FRET real-time internalization assay was used to examine peptide-dependent changes in orphan receptor localization as described previously ([Foster and Bräuner-Osborne, 2018]). Surface-expressed SNAP-tagged receptors were labeled with a cell-impermeable luminescent terbium cryptate (100 nM SNAP Lumi4-Tb; Cisbio, France) for 1 hr at 37°C. Cells were washed to remove excess terbium and incubated with fluorescein-O-acetic acid (100 μM; Sigma Aldrich) for 5 min at 37°C. Peptides were added as for DMR assays, and internalization responses were recorded for 60 min at 37°C using an EnVision 2104 Multimode plate reader (PerkinElmer). 100 nM GLP-1 was used as a positive control for SNAP-GLP1R internalization. Real-time internalization responses were calculated based on TR-FRET (excitation 340 nm; emission 520 nm and 615 nm), and were expressed as the ratio between donor (terbium) and acceptor (fluorescein) emission. For peptide screening analysis (both DMR and internalization assays), we calculated the area under the curve from the real-time traces. […] Validation experiments for receptor internalization were performed as above. Internalization data was processed in MS-Excel and area under the curve was used to generate concentration-response curves using GraphPad Prism 7.0. Data represent mean ± standard error of the mean (SEM) from at least 3 biologically independent experiments.

[4] = molecular target: T2, GPR55 (Homo sapiens, UniProt Q9Y2T6); experiment: β-arrestin recruitment (Tango); format: cell-based; design: hIL-2Ra signal peptide (N); expressed in transfected cells
[5] = molecular target: T2, GPR55; experiment: Dynamic mass redistribution (DMR), concentration-response; format: cell-based; design: hIL-2Ra signal peptide (N); expressed in transfected cells; settings: GPR55, data from single experiment (n = 1)
How it was run: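 Doxycycline-induced (0.1 μg/ml) SNAP-tagged receptors in TREx 293 cells, equilibrated 90 min at 22°C in HEPES-buffered HBSS, pH 7.4, with 0.1% DMSO. Peptide-evoked optical wavelength shift recorded for 60 min at 22°C, buffer/solvent corrected and quantified as area under the curve. Mean ± SEM of at least 3 independent experiments.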

[6] = molecular target: T2, GPR55; experiment: Real-time receptor internalization (TR-FRET), concentration-response; format: cell-based; design: hIL-2Ra signal peptide (N); expressed in transfected cells; settings: GPR55, data from single experiment (n = 1)
How it was run: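 Doxycycline-induced (0.1 μg/ml) SNAP-tagged receptor cells had surface receptors labeled with 100 nM Lumi4-Tb for 1 h at 37°C, then 100 μM fluorescein-O-acetic acid for 5 min. Peptide-induced internalization was recorded by TR-FRET for 60 min at 37°C as donor/acceptor emission ratio. Area under the curve gave concentration-response curves; mean ± SEM, ≥3 independent experiments.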

[7] = tested on: GPR15; experiment: Repeat of proposed literature pairing; format: cell-based, human
Source text: Supplement mmc7.xlsx, sheet "Hit summary and classification" | column: Priority orphans

[8] = tested on: GPR15; experiment: Repeat of proposed literature pairing (mass redistribution and/or internalization); format: cell-based, human; settings: target GPR15; reported ligand tested on receptor-expressing cell line
[9] = molecular target: T3, GPR15 (Homo sapiens, UniProt P49685); experiment: cAMP inhibition (Gi/o), HTRF with forskolin; format: cell-based; settings: GPR15L cleavage variants versus peptide 64; Figure 5, Table S7
T3 construct: hIL-2Ra signal peptide (N); expressed in transfected cells
T3 sequence (P49685 2-360 limits assumed): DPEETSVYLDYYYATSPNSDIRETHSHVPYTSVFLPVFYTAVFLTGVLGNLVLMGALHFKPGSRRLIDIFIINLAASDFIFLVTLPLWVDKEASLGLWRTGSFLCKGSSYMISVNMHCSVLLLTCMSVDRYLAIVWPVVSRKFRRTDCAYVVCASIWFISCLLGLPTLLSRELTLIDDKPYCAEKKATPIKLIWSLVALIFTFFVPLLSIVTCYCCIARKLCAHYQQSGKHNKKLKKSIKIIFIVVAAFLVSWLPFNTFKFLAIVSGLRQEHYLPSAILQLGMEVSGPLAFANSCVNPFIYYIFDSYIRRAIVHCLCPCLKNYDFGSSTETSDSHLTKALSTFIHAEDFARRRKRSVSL
Protocol: Peptide-dependent second messenger responses were measured using commercially available HTRF-based IP1 and cAMP kits (Cisbio) as described previously ([Nørskov-Lauritsen et al., 2014]). Receptor expression was induced for 48 hr with 0.1 μg/ml doxycycline in 10 cm dishes. For IP1 measurements (to measure Gq/11), 2,500 cells/well were mixed with ligands in triplicate wells in low volume white 384-well plates at 37°C for 30 min. For cAMP assays, 2,500 cells/well were added in triplicate wells in white 384-well plates in the absence or presence of 3 μM forskolin (to measure Gs and Gi/o activation respectively). 100 μM IBMX was included to prevent cAMP degradation during 30 min stimulation on a plate shaker at room temperature. For both assays, HTRF was measured using an EnVision 2104 Multimode plate reader (PerkinElmer).

[10] = molecular target: T4, GPR176 (Homo sapiens, UniProt Q14439); experiment: Dynamic mass redistribution (DMR), validation; format: cell-based
T4 construct: host or cells: HTLA cells (HEK293-derived)
T4 sequence (Q14439 1-515): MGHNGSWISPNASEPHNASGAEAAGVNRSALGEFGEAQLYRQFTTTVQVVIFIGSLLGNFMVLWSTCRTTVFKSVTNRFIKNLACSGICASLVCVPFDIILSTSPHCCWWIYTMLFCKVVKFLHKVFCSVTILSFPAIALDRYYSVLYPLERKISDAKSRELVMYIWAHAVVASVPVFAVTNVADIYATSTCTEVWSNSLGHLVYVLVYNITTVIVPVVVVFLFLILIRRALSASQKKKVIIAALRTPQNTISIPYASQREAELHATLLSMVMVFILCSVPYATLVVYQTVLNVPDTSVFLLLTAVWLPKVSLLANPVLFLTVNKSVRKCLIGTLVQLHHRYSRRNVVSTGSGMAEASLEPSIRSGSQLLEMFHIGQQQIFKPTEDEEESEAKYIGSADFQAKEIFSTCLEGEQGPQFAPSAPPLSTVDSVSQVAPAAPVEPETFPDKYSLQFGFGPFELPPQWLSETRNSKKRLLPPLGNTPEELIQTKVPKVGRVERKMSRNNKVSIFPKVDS
Source text: as §1

[11] = molecular target: T4, GPR176; experiment: Real-time receptor internalization, validation; format: cell-based
Source text: as §1

[12] = molecular target: T4, GPR176; experiment: Dynamic mass redistribution (DMR, AUC), peptide validation; format: cell-based; settings: Emax and pEC50 n.d., n = 2
Source text: as §1

[13] = tested on: 120 GPCR targets, including all available orphan receptors and 27 known class A peptide receptors; experiment: Peptide library screen, β-arrestin recruitment (Tango, fold change, 10 μM); format: cell-based, human; settings: Tango; receptor(s) at which the known library peptide was active, among its known GPCR target(s); validated pairings
How it was run: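 HTLA cells (HEK293 with tTA-dependent luciferase and β-arrestin2-TEV) transiently transfected with Tango GPCR constructs, then stimulated overnight with 10 μM peptides in 1% dFBS medium. Luciferase luminescence read after 15–20 min Bright-Glo incubation at room temperature.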

[14] = molecular target: T4, GPR176; experiment: β-arrestin recruitment (Tango), indicative pairing; format: cell-based; settings: mean, n = 3
[15] = molecular target: T4, GPR176; experiment: Real-time receptor internalization (AUC), peptide validation; format: cell-based; settings: Emax and pEC50 n.d., n = 2
Source text: as §1

T2 sequence (Q9Y2T6 2-319 limits assumed): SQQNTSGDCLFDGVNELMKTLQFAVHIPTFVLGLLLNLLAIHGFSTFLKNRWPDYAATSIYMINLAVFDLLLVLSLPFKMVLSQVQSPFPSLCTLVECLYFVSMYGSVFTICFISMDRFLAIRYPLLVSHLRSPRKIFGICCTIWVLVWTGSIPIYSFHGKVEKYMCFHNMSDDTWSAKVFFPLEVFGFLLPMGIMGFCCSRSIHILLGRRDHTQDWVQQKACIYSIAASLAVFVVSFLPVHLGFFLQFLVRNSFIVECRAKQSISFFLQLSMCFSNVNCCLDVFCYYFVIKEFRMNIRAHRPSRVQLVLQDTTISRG

Molecule: CSCC[C@H](NC(=O)[C@H](CO)NC(=O)[C@H](Cc1ccc(O)cc1)NC(=O)[C@@H](N)CO)C(=O)N[C@@H](CCC(=O)O)C(=O)N[C@@H](Cc1c[nH]cn1)C(=O)N[C@@H](Cc1ccccc1)C(=O)N[C@@H](CCCNC(=N)N)C(=O)N[C@@H](Cc1c[nH]c2ccccc12)C(=O)NCC(=O)N[C@@H](CCCCN)C(=O)N1CCC[C@H]1C(=O)N[C@H](C(N)=O)C(C)C [Alpha-MSH (des-acetyl MSH)]
- Comment on response, Tango (fold over basal); Emax and pEC50 n.d. [1]: No response
- Emax, IP1 [2]: 60.8 nM
- EC50 ([2]; read-out: pEC50, IP1 (converted)): 10 µM
- Emax, Internalization (AUC) ([3]; data from single experiment (n = 1)): 2.9
- Emax, DMR (peak) ([3]; mean, SEM and n): 39.5
- EC50 ([3]; mean, SEM and n, read-out: pEC50, DMR (peak) (converted)): 0.0363 µM

Molecule: CC[C@H](C)[C@H](NC(=O)[C@@H](NC(=O)[C@H](Cc1c[nH]c2ccccc12)NC(=O)[C@H](CCC(=O)O)NC(=O)[C@H](CO)NC(=O)[C@@H](NC(=O)[C@H](CO)NC(=O)[C@@H]1CSSC[C@H](NC(=O)[C@H](CC(=O)O)NC(=O)[C@@H](N)CCC(=O)O)C(=O)N[C@@H](CCCCN)C(=O)N[C@@H](Cc2ccc(O)cc2)C(=O)N[C@@H]([C@@H](C)CC)C(=O)N[C@@H](C(C)C)C(=O)N[C@@H](C(C)C)C(=O)N[C@@H](CCC(=O)O)C(=O)N[C@@H](CCCCN)C(=O)N[C@@H](CCCCN)C(=O)N[C@@H](CC(=O)O)C(=O)N2CCC[C@H]2C(=O)N[C@@H](CCCCN)C(=O)N[C@@H](CCCCN)C(=O)N[C@@H]([C@@H](C)O)C(=O)N1)C(C)C)[C@@H](C)CC)C(=O)O [MSMB (91-114)] (H-EDCKYIVVEKKDPKKTCSVSEWII-OH; disulfide 3-17; N-terminus and C-terminus assumed)
- Comment on response, Tango (fold over basal); Emax and pEC50 n.d. [4]: No response
- Emax, DMR (AUC) [5]: 169875.0
- EC50 ([5]; read-out: pEC50, DMR (AUC) (converted)): 0.224 µM
- Emax, Internalization (AUC) [6]: 37.6
- EC50 ([6]; read-out: pEC50, Internalization (AUC) (converted)): 2.69 µM

Molecule: GPR15L: longest 57-residue cleavage variant of C10orf99 with two intramolecular disulfide bridges (KRRPAKAWSGRRTRLCCHRVPSPNSTNLKGHHVRLCKPCKLEPEPRLWVVPGALPQV; disulfide (positions not given here))
- Peptide pairing for orphan receptor GPR15 (confirmed/unconfirmed) [7]: Confirmed peptide pairings for orphans
- Active in DMR/internalization [8]: Yes
- fold improved potency over the 11-amino acid peptide at GPR15 [9]: 100 fold

Molecule: RSVNPYLQ [SCG5 (181-188)]
- Comment on response, DMR (AUC); Emax and pEC50 n.d. [10]: No response
- Comment on response, Internalization (AUC); Emax and pEC50 n.d. [11]: No response

Molecule: SYSMEHFRWGKPVGKKRRPVKVYPNGAEDESAEAFPLEF [Peptide 208]
- Comment, DMR (AUC) [12]: No response
- Active at: (activity in b-arrestin recruitment assays) [13]: MC4R
- Emax, Tango (fold over basal) [14]: 8.0 fold over basal
- pEC50, Tango (fold over basal) [14]: 5.06
- Comment, Internalization (AUC) [15]: No response
